Experimental data: patent publication US11828759B2, “Method of diagnosis” (Peter MacCallum Cancer Institute, priority 2016, dated 2023)
“Also recorded” adds a separate entry of the source.

B1: recombinant stefin A: recombinant stefin A (R&D Systems, 1407-PI-050), an 11 kDa cysteine protease inhibitor (protein, UniProt P01040 1-98, looked up)
Cystatin-A: MIPGGLSEAKPATPEIQEIVDKVKPQLEEKTNETYGKLEAVQYKTQVVAGTNYYIKVRAGDNKYMHLKVFKSLPGQNEDLVLTGYQVDKNKDDELTGF

Columns and labels:
[1] = test system: DSG3; assay: Western blot of DSG3 in N1ME cells and conditioned media after CA-074 treatment; assay type: cell-based, human; settings: CA-074 for 72 hours vs DMSO
Protocol: (§1) Cells were lysed by freezing in citrate buffer (50 mM citrate, pH 5.5, 0.5% CHAPS, 0.1% TRITON™ X-100, 4 mM DTT). For cathepsin B activity gels, activity-based probes [GB123 (1 μM) (29) or BMV109 (0.1 μM) (Verdoes et al. 2013)] were added to lysates from a 100×stock, and proteins were incubated for 30 minutes at 37° C. The addition of 4×sample buffer (40% glycerol, 200 mM Tris-HCl pH 6.8, 0.04% bromophenol blue, 5% beta-mercaptoethanol) stopped the reaction with boiling for 10 minutes. Proteins (30-50 μg) were separated by SDS-PAGE (on either 15% acrylamide or gradient 4-20% gels, precast from BIO-RAD, CA, USA) and visualized using a TYPHOON flatbed laser scanner (GE Healthcare, UK) for Cy5 fluorescence. For immunoblotting, proteins were transferred to nitrocellulose membranes and subjected to standard Western blotting protocols. Membranes were incubated with 1 μg/ml primary antibodies against stefin A, cathepsin B (R&D Systems, Minneapolis, USA, AF965), DSG3 (Life Technologies, 326300), E-cadherin (Novus, NB-110-56937), or 1:10,000 dilutions of β-actin (Sigma-Aldrich, MO, USA, A22280) or GAPDH (Cell Signaling Technology, MA, USA, 8884). Signal was detected using ECL (GE Healthcare), G:Box GelDoc (Syngene, CBG, UK) and GeneSys (Syngene) software with automatic exposure.
(§2) To collect secreted proteins, cells were incubated in serum free media for 24 hours. […]

[2] = test system: MMTV-PyMT mice (spontaneous mammary gland tumors); assay: MMTV-PyMT mouse model of DCIS-to-invasive transition; assay type: in vivo; settings: 50 mg/kg intraperitoneal daily, day 30-49
Protocol: Mouse investigations were performed after approval by the La Trobe University Animal Ethics Committee. Bl/6 MMTV-PyMT positive female mice were injected (intraperitoneal, 200 μl/20 g mouse) daily with 50 mg/kg CA-074 or vehicle (5% DMSO/saline) from day 30-49. On day 50, mice were culled and second, third and fourth mammary glands were resected and sent for histology. Mouse tissues were fixed in 10% buffered formalin for 6 hours and paraffin-embedded. Sections at three different depths throughout the mammary gland were taken and were stained with hematoxylin and eosin according to standard protocols. Alternatively, sections were stained with 1 μg/ml anti-α-smooth muscle actin (ABCAM, ab66133) or with isotype control antibodies, as above. Sections were scored by a pathologist blinded to treatment groups (Sandra O'Toole) for the presence of invasive regions of cancer growth within the mammary gland. Experiment included 8 mice per group.

[3] = test system: MDA-MB-231 cells; assay: 3D culture / co-culture invasion model on reconstituted basement membrane; assay type: cell-based, human; settings: for invasive protrusions / invasive outgrowths of co-cultures: MDA-MB-231 co-cultured 1:1 with N1ME stefin A low myoepithelial cells, 50 μM inhibitor in media, refreshed every 48 hours, vs DMSO control, n=3
Protocol: All 3D cultures were performed using CULTREX® (Trevigen, Gaithersburg, MD, 3433-005-01) similar to previously described (Mullins et al.). Briefly, 8 well chambers (THERMOFISHER, NUN155409) were coated with 100% CULTREX and allowed to solidify at 37° C. Cells (pre-mixed at 1:1 ratio) were seeded on top of the solidified CULTREX and allowed to adhere for 60-90 minutes before 2% CULTREX in MEGM media (LONZA) was overlaid. Media was changed every 4 days unless otherwise stated. On day 7, Z-stacks were captured on a ZEISS LSM 780 inverted confocal microscope, and 3D-reconstructions were created using IMARIS.
Bright-field images at 40× magnification were taken on the Olympus BX41 using a DP25 camera and DP2-BSW software (Olympus, TYO, Japan) to observe overall multicellular morphology. Nuclei were labelled with cell permeable Hoechst (Thermo Scientific, MA, USA, 33342) and rinsed with PBS. Confocal microscopy was performed on a Zeiss LSM 780 inverted confocal microscope (Zeiss, Thornwood, NY, USA) with a 10×/0.45 air-objective, with 37° C., 5% CO2 incubation. Z-stacks were captured using ZEN software (Zeiss) and 3D-reconstructions were created using IMARIS (Bitplane, Switzerland) including volume rendering.
Images of 3D cultures were processed and analyzed using the Fiji distribution of IMAGEJ (Schindelin et al. 2012) as follows. Extraction and mask generation of the individual cultures was carried out by applying an edge filter followed by an unsharp mask (radius=6, mask=0.8). The resulting image was blurred using a Gaussian filter (sigma=4) to make subsequent thresholding more accurate. A threshold was applied, manually adjusted if required and used to create a binary mask. The resulting mask was filtered by size to remove small, erroneous, debris. Each individual 3D cultures mask was then measured for its perimeter and convex hull lengths. […]
All statistics were calculated and graphed using PRISM version 7. […] Variation in mean convex hull to perimeter ratio was determined using one-way ANOVA followed by Tukey's post hoc analysis.

[4] = test system: E-cadherin; assay: Western blot of E-cadherin in N1ME cells and supernatant after CA-074 treatment; assay type: cell-based, human; settings: N1ME stefin A wild type or stefin A low cells; CA-074 for 72 hours
Protocol: as §1, §2

[5] = target: T1, cathepsin B (Homo sapiens, UniProt P07858); assay: Stefin A in vitro inhibition of cathepsin B in N1ME cell lysate (BMV109 activity based probe); assay type: biochemical; settings: increasing concentrations of recombinant stefin A, 15 min at 37 C
T1 construct: SDS-PAGE gel electrophoresis of N1ME cell lysate incubated with increasing concentrations of recombinant stefin A; endogenous in cells; host or cells: N1ME (hTERT-immortalized human myoepithelial cells), lysed in citrate buffer pH 5.5
Protocol: as §1, with “exposure. […]” for “exposure.”

[6] = target: T2, cathepsin L (Homo sapiens, UniProt P07711); assay: Stefin A in vitro inhibition of cathepsin L in N1ME cell lysate (BMV109 activity based probe); assay type: biochemical; settings: increasing concentrations of recombinant stefin A, 15 min at 37 C
T2 construct: SDS-PAGE gel electrophoresis of N1ME cell lysate incubated with increasing concentrations of recombinant stefin A; endogenous in cells; host or cells: N1ME (hTERT-immortalized human myoepithelial cells), lysed in citrate buffer pH 5.5
T2 sequence (P07711 114-333): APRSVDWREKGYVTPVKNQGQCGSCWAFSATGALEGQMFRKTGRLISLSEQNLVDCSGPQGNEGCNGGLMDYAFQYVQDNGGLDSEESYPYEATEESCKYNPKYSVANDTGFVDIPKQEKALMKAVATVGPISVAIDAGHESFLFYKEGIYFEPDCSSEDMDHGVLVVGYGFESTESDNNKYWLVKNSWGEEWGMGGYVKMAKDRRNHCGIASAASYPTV

Molecule | DSG3 protein in whole cell lysates ([1]; N1ME stefin A low cells) | cleaved extracellular domain of DSG3 (ecto-DSG3) in conditioned media ([1]; N1ME wild type and stefin A low cells) | mice progressed to IDC at experimental endpoint ([2]; glands scored at day 50, 8 mice per group, control 6/8) | number of invasive regions throughout the mammary gland ([2]; vs DMSO control) | invasive protrusions / invasive outgrowths of co-cultures [3] | E-cadherin expression in whole cell lysates or ecto-protein [4] | invasion of MDA-MB-231 cells cultured alone ([3]; MDA-MB-231 alone, without myoepithelial cells) | cathepsin B activity [5] | cathepsin L activity [6]
CCCNC(=O)[C@H]1O[C@@H]1C(=O)N[C@H](C(=O)N1CCC[C@H]1C(=O)O)[C@@H](C)CC [CA-074] | rescued in whole cell lysates; also recorded: an increase in protein was noted for DSG3 | decreased the cleaved extracellular domain of DSG3 | 2/8 | decreased the number of invasive regions | rescued the phenotype caused by stefin A loss | did not affect E-cadherin expression |  |  | 
JPM-OEt |  |  |  |  | reverted the invasive protrusions in the co-cultures, however not to the same extent as CA-074, and was not statistically significant |  |  |  | 
B1 |  |  |  |  |  |  | did not inhibit invasion | can be inhibited | can be inhibited
